Measurements from US7737251B2, “Long lasting glucagon-like peptide 2 (GLP-2) for the treatment of gastrointestinal diseases and disorders” (ConjuChem Biotechnologies Inc., priority 2001, dated 2010).
Ends that are not written are not given here. * marks the point of attachment. Propanoyl(3-maleimido) = O=C1C=CC(=O)N1CCC(=O)*

What was measured:
Type in all cases: in vivo
rat albumin = target: T1, rat albumin (Rattus norvegicus, UniProt P02770); test: Immunoblotting of rat plasma for conjugation to plasma proteins
T1 construct: from tissue; host or cells: rat plasma (Sprague-Dawley rats, in vivo conjugation after iv/sc dosing)
T1 sequence (P02770 25-608): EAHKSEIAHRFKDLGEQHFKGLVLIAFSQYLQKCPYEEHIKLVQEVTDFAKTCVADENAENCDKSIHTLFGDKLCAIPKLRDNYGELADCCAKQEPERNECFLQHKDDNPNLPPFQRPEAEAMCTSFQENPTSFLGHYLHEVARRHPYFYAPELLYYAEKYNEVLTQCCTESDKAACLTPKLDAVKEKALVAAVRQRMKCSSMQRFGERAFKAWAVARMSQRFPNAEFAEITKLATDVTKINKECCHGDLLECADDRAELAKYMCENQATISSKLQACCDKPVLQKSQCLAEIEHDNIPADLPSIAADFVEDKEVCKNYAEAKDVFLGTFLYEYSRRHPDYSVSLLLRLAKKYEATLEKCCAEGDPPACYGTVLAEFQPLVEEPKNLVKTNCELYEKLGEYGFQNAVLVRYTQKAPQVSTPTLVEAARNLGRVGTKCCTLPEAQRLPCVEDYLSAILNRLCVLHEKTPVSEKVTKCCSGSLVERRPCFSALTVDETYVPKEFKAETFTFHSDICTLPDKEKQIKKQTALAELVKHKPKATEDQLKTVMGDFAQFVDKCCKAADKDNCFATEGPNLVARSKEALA
Description: Plasma samples obtained from the rat pharmacokinetic study were analyzed by immunoblotting. Plasma proteins were separated under non-reducing conditions using sodium-dodecyl-sulfate polyacrylamide gel electrophoresis (SDS-PAGE) according to Laemmli (1970). Plasma samples were first diluted 1:10 with distilled water and 20 μl was mixed with 10 μl of 3× Laemmli buffer (30 mM TrisCl, 3 mM EDTA, 15% SDS, pH 6.8) and 2 μl of bromophenol blue solution (0.1% bromophenol blue, 50% glycerol). Mixtures were placed in a boiling water bath for 3 min and loaded on gel. Proteins were first concentrated in a 3% stacking gel and then migrated through 8% separating gel using a mini-gel system with 10-well combs (1.5×4.8 mm). Electrophoresis was run under constant current at 15 mA/gel to concentrate proteins in stacking gel and at 20 mA/gel in separating gel for approximately 1.5 h.
Proteins were subsequently transferred onto a nitrocellulose membrane using a semi-dry transfer apparatus, for 1 hour at 100 mA/gel. Transfer efficacy was checked by reversible staining of the membrane with 1% red Ponceau™ solution.
Membranes were saturated overnight at 4° C. with Tris Buffered Saline (TBS) containing 5% low fat milk. […]

CD-1 mice = test: Dose-response with selected Gly2-GLP-2 analogues (small and large intestine weight); settings: 5, 25 or 50 μg/dose sc twice daily for 10 days, female CD-1 mice
Description: Six-week-old female CD-1 mice (20-25 g) were treated twice daily for 10 consecutive days with 5, 25 or 50 μg/dose of the compounds of Examples 5, 7 and 8. The compounds were dissolved in 0.083M sodium phosphate buffer, pH 6.8 and administered via subcutaneous injections in the dorsal-lateral area of the lumbar region. Control animals received 0.25 ml/dose of sodium phosphate buffer.
On day 11, fed mice were anesthetized with Halothane™ and small intestine, large intestine and stomach were collected from each mouse after laparatomy. The tissues were then cleaned and weighed.

[1] = Pharmacokinetic profiles in rats (plasma radioimmunoassay); settings: male, rat, single 500 nmol/kg, Sprague-Dawley rats; for half-life: harmonic mean; for Vd: read-out: Vss; for Tmax: expressed as media; for bioavailability: read-out: F (absolute bioavailability)
Description: The pharmacokinetic profiles of the compounds of Examples 5 and 8 were studied in normal rats following a single intravenous or subcutaneous injection. Plasma concentrations were determined by radioimmunoassay with a commercial antibody anti-human GLP-2.
Test articles were dissolved in 0.083M sodium phosphate buffer, pH 6.8 and administered to eight to eleven-week-old male Sprague-Dawley rats by a single intravenous or subcutaneous injection at a dose level of 500 nmol/kg. Serial blood samples (I50-200 μl) were collected into tubes containing EDTA and DPP-IV inhibitor at the following time-points: pre-dose, 5 and 30 min., and 1, 2, 4, 8, 24, 48, 72 and 96 hours post-test agent administration. Whole blood was centrifuged and subsequent plasma samples were recovered and stored at −80° C. until analysis.
The plasma concentrations of the compounds of Examples 5 and 8 were determined by radioimmunoassay using a rabbit polyclonal antibody anti-human GLP-2 (Peninsula Laboratories, RGG7167) and iodinated human GLP-2 as tracer.
Descriptive pharmacokinetic parameters were determined by standard model-independent methods (Gibaldi and Perrier, 1982) based on the analysis of plasma concentration-time data. Pharmacokinetic analyses were performed using macros written for Microsoft Excel 97. The following parameters were calculated: • Cmax is the maximum plasma concentration; • Tmax is the time when Cmax is observed; • T1/2 is the terminal half-life; • AUC(0-inf) is the area under the plasma concentration-time curve from time zero to time infinity; • F is the absolute bioavailability, • CL is the systemic clearance; • MRT is mean residence time; and • Vss is the steady-state volume of distribution.

normal mice = test: Intestinotrophic activity in normal mice model (small intestine weight); settings: 5 μg/dose sc twice daily for 10 days, male CD-1 mice; for small intestine weight: vs saline control
Description: The intestinotrophic activity of the compounds of Examples 1-8 has been evaluated in a normal mice model. Five-week-old male CD-1 mice (20-25 g) were treated twice daily for 10 consecutive days with 5 μg/dose of each compound dissolved in 0.9% NaCl aqueous solution. The compounds were administered via subcutaneous injections in the dorsal-lateral area of the lumbar region. Control animals received 0.25 ml/dose of 0.9% NaCl.
On day 11, mice were fasted for 4 hours and anesthetized with CO2 Small intestines were removed, cleaned and weighed.

| Compound | conjugation to rat albumin (rat albumin; post-iv administration, anti-GLP-2 immunoblot) | signal on albumin (rat albumin; post-sc administration, anti-GLP-2 immunoblot (not shown)) | dose-response, large intestine weight (CD-1 mice) | dose-response, small intestine weight (CD-1 mice) | AUC(0-inf) ([1]; IV) [µM·h] | Cmax ([1]; IV) [nM] | MRT ([1]; IV) [h] | clearance ([1]; IV) [mL/min/kg] | half-life ([1]; IV) [h] | Vd ([1]; IV) [L/kg] | AUC(0-inf) ([1]; SC) [µM·h] | Cmax ([1]; SC) [nM] | Tmax ([1]; SC) [h] | half-life ([1]; SC) [h] | bioavailability ([1]; SC) [%] | intestinotrophic effects compared to the native GLP-2 peptides of Examples 1 and 3 (normal mice) | small intestine weight (normal mice) |
| --- | --- | --- | --- | --- | --- | --- | --- | --- | --- | --- | --- | --- | --- | --- | --- | --- | --- |
| CC[C@H](C)[C@H](NC(=O)[C@H](Cc1ccccc1)NC(=O)[C@H](CC(=O)O)NC(=O)[C@H](CCCNC(=N)N)NC(=O)[C@H](C)NC(=O)[C@H](C)NC(=O)[C@H](CC(C)C)NC(=O)[C@H](CC(N)=O)NC(=O)[C@H](CC(=O)O)NC(=O)[C@H](CC(C)C)NC(=O)[C@@H](NC(=O)[C@@H](NC(=O)[C@H](CC(N)=O)NC(=O)[C@H](CCSC)NC(=O)[C@H](CCC(=O)O)NC(=O)[C@H](CC(=O)O)NC(=O)[C@H](CO)NC(=O)[C@H](Cc1ccccc1)NC(=O)[C@H](CO)NC(=O)CNC(=O)[C@H](CC(=O)O)NC(=O)CNC(=O)[C@@H](N)Cc1c[nH]cn1)[C@@H](C)O)[C@@H](C)CC)C(=O)N[C@@H](CC(N)=O)C(=O)N[C@@H](Cc1c[nH]c2ccccc12)C(=O)N[C@@H](CC(C)C)C(=O)N[C@H](C(=O)N[C@@H](CCC(N)=O)C(=O)N[C@H](C(=O)N[C@@H](CCCCN)C(=O)N[C@H](C(=O)N[C@H](C(=O)N[C@@H](CC(=O)O)C(=O)N[C@@H](CCCCNC(=O)CCN1C(=O)C=CC1=O)C(N)=O)[C@@H](C)O)[C@@H](C)CC)[C@@H](C)O)[C@@H](C)CC [Example 8] | conjugates efficiently to rat albumin | weak signal | possible dose-response | possible dose-response | 89.4 | 10100 | 16.9 | 0.0942 | 16.2 | 0.0953 | 13.5 | 651 | 0.5 | 23.8 | 15.2 | more pronounced intestinotrophic effects | Significant increases |
| His-Ala-Asp-Gly-Ser-Phe-Ser-Asp-Glu-Met-Asn-Thr-Ile-Leu-Asp-Asn-Leu-Ala-Ala-Arg-Asp-Phe -Ile-Asn-Trp-Leu-Ile-Gln-Thr-Lys-Ile-Thr-Asp-Lys(MPA)-CONH2 (HADGSFSDEMNTILDNLAARDFINWLIQTKITDK; MPA; C-terminal amide; analog of GLP-2; VARIANT (34)...(34): MPA attached to the Lys residue; AMIDATION (34)...(34)) [Example 3] |  |  |  |  |  |  |  |  |  |  |  |  |  |  |  |  | Significant increases |
| His-Ala-Asp-Gly-Ser-Phe-Ser-Asp-Glu-Met-Asn-Thr-Ile-Leu-Asp-Asn-Leu-Ala-Ala-Arg-Asp-Phe -Ile-Asn-Trp-Leu-Ile-Gln-Thr-Lys-Ile-Thr-Asp-CONH2 (HADGSFSDEMNTILDNLAARDFINWLIQTKITD-NH2) [Example 1] |  |  |  |  |  |  |  |  |  |  |  |  |  |  |  |  | Significant increases |
| His-Gly-Asp-Gly-Ser-Phe-Ser-Asp-Glu-Met-Asn-Thr-Ile-Leu-Asp-Lys(MPA)-Leu-Ala-Ala-Arg -Asp-Phe-Ile-Asn-Trp-Leu-Ile-Gln-Thr-Lys-Ile-Thr-Asp-CONH2 (HGDGSFSDEMNTILDK(Propanoyl(3-maleimido))LAARDFINWLIQTKITD-NH2; N-terminus assumed; SMILES CC[C@H](C)[C@H](NC(=O)[C@H](Cc1ccccc1)NC(=O)[C@H](CC(=O)O)NC(=O)[C@H](CCCNC(=N)N)NC(=O)[C@H](C)NC(=O)[C@H](C)NC(=O)[C@H](CC(C)C)NC(=O)[C@H](CCCCNC(=O)CCN1C(=O)C=CC1=O)NC(=O)[C@H](CC(=O)O)NC(=O)[C@H](CC(C)C)NC(=O)[C@@H](NC(=O)[C@@H](NC(=O)[C@H](CC(N)=O)NC(=O)[C@H](CCSC)NC(=O)[C@H](CCC(=O)O)NC(=O)[C@H](CC(=O)O)NC(=O)[C@H](CO)NC(=O)[C@H](Cc1ccccc1)NC(=O)[C@H](CO)NC(=O)CNC(=O)[C@H](CC(=O)O)NC(=O)CNC(=O)[C@@H](N)Cc1c[nH]cn1)[C@@H](C)O)[C@@H](C)CC)C(=O)N[C@@H](CC(N)=O)C(=O)N[C@@H](Cc1c[nH]c2ccccc12)C(=O)N[C@@H](CC(C)C)C(=O)N[C@H](C(=O)N[C@@H](CCC(N)=O)C(=O)N[C@H](C(=O)N[C@@H](CCCCN)C(=O)N[C@H](C(=O)N[C@H](C(=O)N[C@@H](CC(=O)O)C(N)=O)[C@@H](C)O)[C@@H](C)CC)[C@@H](C)O)[C@@H](C)CC) [Example 7] |  |  | no dose-response | No dose-response |  |  |  |  |  |  |  |  |  |  |  | more pronounced intestinotrophic effects | Significant increases |
| CC[C@H](C)[C@H](NC(=O)[C@H](Cc1ccccc1)NC(=O)[C@H](CC(=O)O)NC(=O)[C@H](CCCNC(=N)N)NC(=O)[C@H](C)NC(=O)[C@H](C)NC(=O)[C@H](CC(C)C)NC(=O)[C@H](CC(N)=O)NC(=O)[C@H](CC(=O)O)NC(=O)[C@H](CC(C)C)NC(=O)[C@@H](NC(=O)[C@@H](NC(=O)[C@H](CC(N)=O)NC(=O)[C@H](CCSC)NC(=O)[C@H](CCC(=O)O)NC(=O)[C@H](CC(=O)O)NC(=O)[C@H](CO)NC(=O)[C@H](Cc1ccccc1)NC(=O)[C@H](CO)NC(=O)CNC(=O)[C@H](CC(=O)O)NC(=O)CNC(=O)[C@@H](N)Cc1c[nH]cn1)[C@@H](C)O)[C@@H](C)CC)C(=O)N[C@@H](CC(N)=O)C(=O)N[C@@H](Cc1c[nH]c2ccccc12)C(=O)N[C@@H](CC(C)C)C(=O)N[C@H](C(=O)N[C@@H](CCC(N)=O)C(=O)N[C@H](C(=O)N[C@@H](CCCCN)C(=O)N[C@H](C(=O)N[C@H](C(=O)N[C@@H](CC(=O)O)C(N)=O)[C@@H](C)O)[C@@H](C)CC)[C@@H](C)O)[C@@H](C)CC [Example 5] |  |  | no dose-response | No dose-response | 0.626 | 1560 | 0.3 | 13.9 | 1.5 | 0.25 | 0.205 | 159 | 0.5 | 0.9 | 32.8 | more pronounced intestinotrophic effects | Significant increases |
